Converted amounts (≈) assume the structure as drawn.
What was measured:
RARα = biological target: T1, RARα (Homo sapiens, UniProt P10276); experiment: Transactivation (luciferase) antagonist assay, RARα; type: cell-based; conditions: vs EC80 (180 nM) 9-cis-RA, luciferase readout; read-out: RARα Antagonism IC50
T1 construct: host or cells: unnamed reporter cells
T1 sequence (P10276 1-462): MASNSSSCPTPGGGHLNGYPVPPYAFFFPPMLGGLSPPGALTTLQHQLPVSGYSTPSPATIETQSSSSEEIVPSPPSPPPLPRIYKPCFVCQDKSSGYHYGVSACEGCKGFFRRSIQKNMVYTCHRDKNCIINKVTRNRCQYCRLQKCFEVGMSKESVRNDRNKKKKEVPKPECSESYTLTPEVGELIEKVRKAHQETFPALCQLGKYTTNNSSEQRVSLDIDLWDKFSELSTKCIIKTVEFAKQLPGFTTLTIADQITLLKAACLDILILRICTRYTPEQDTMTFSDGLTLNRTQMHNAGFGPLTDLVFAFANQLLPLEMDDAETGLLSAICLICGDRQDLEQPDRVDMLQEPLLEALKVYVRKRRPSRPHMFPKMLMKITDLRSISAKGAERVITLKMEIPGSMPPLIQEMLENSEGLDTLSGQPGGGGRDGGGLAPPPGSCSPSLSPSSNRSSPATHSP
Experimental: (§1) Control wells containing cells without added agonist defined the background signal values. […] Cell suspension (30 μL) was added to each well and the assay plate was incubated overnight in a 5% CO2 incubator at 37° C. Luciferase detection reagent (15 μL) was then added and the plate was incubated at RT for 30 minutes. Luminescence was quantified using an EnSpire plate reader (PerkinElmer, Waltham, MA). IC50 values were determined by fitting dose response data using the four-parameter logistic equation in GraphPad Prism 7.0.

RARβ = biological target: T2, RARβ (Homo sapiens, UniProt P10826); experiment: Transactivation (luciferase) antagonist assay, RARβ; type: cell-based; conditions: vs EC80 (8 nM) ATRA, luciferase readout; read-out: RARβ Antagonism IC50
T2 construct: host or cells: unnamed reporter cells
T2 sequence (P10826 1-455): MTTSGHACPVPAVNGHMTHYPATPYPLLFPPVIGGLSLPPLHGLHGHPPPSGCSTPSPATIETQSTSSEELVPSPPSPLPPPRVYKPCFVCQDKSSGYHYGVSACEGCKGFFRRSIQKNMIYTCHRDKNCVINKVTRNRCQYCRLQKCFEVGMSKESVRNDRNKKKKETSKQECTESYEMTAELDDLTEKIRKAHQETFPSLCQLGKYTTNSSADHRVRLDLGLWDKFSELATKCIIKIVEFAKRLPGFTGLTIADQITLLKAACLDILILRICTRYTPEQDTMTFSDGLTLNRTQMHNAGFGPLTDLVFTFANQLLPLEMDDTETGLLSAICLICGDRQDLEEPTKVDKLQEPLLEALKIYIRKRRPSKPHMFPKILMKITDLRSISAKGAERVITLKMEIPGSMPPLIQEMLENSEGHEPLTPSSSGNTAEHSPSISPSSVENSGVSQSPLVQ
Experimental: as §1

RARγ = biological target: T3, RARγ (Homo sapiens, UniProt P13631); experiment: Transactivation (luciferase) antagonist assay, RARγ; type: cell-based; conditions: vs EC80 (8 nM) ATRA, luciferase readout; read-out: RARγ Antagonism IC50
T3 construct: host or cells: unnamed reporter cells
T3 sequence (P13631 1-454): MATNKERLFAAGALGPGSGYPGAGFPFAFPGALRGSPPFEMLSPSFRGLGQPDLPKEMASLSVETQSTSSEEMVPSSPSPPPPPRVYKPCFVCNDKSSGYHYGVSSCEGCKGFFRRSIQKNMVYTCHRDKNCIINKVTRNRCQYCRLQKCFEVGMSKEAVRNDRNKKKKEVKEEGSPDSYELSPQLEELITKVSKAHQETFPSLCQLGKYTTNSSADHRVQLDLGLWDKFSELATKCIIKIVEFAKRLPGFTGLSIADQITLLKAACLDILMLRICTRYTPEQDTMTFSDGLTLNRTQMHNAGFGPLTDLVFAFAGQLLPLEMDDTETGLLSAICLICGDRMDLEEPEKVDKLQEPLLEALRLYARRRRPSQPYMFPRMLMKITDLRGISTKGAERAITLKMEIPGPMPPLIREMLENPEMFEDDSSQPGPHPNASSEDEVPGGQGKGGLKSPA
Experimental: as §1

[1] = Solubility in PBS at pH 7.4; type: physicochemical

| SMILES | IC50 (RARα) [nM] | IC50 (RARβ) [nM] | IC50 (RARγ) [nM] | solubility [1] [µM] |
| --- | --- | --- | --- | --- |
| Cc1ccc(C2=CC(C)(C)Oc3ccc(-c4ccc(-c5ccc(C(=O)O)c(F)c5)[nH]4)cc32)cc1 | 100 |  |  |  |
| Cc1ccc(C2=CC(C)(C)Oc3ccc(-c4ccc(-c5cc(F)c(C(=O)O)c(F)c5)[nH]4)cc32)cc1 | 470 |  |  |  |
| COc1cc2c(cc1-c1ccc(-c3ccc(C(=O)O)cc3)[nH]1)C(c1ccc(C)cc1)=CC(C)(C)O2 | 2000 |  |  |  |
| CC(=O)[C@H]1CC[C@H]2[C@@H]3CCC4=CC(=O)CC[C@]4(C)[C@H]3CC[C@]12C [Progesterone, reference compound] |  |  |  | 14.02 (≈ 4.41 µg/mL) |

Further compounds by falling IC50 (RARα), results first:

| IC50 (RARα) [nM] | IC50 (RARβ) [nM] | IC50 (RARγ) [nM] | SMILES | solubility [1] [µM] |
| --- | --- | --- | --- | --- |
| 94 | > 3000 | > 3000 | Cc1ccc(C2=CC(C)(C)Oc3ccc(-c4ccc(-c5ccc(C(=O)O)c(O)c5)[nH]4)cc32)cc1 |  |
| 87 | > 3000 | > 3000 | Cc1ccc(C2=CC(C)(C)Oc3ccc(-c4ccc(-c5ccc(C(=O)O)c(C)c5)[nH]4)cc32)cc1 |  |
| 15 | > 3300 | > 3300 | CC1(C)C=C(c2ccccc2)c2cc(-c3ccc(-c4ccc(C(=O)O)cc4)[nH]3)ccc2O1 |  |
